The record followed here is patent publication US5856175A, “Device for detecting microorganisms” (priority 1996, dated 1999).

Where two headings read alike, the source gives them in different places.

Holding throughout (type): cell-based
Experiment [1] deals with Escherichia coli 29194. As to the kind of experiment: Antimicrobial susceptibility pattern using silicone-emulsion CO2 sensors (Table 4). The source says:
(§1) Microtiter plates (96 flat bottom wells) containing 0.05% Xylenol blue silicone-emulsion sensors on the bottom were filled with 100 microliters of microbial growth medium containing no antibiotics (growth control wells) and nine different classes of antibiotics. Final concentrations of the antibiotics were achieved after addition of 100 microliters of inoculum (final inoculum of 5×10^7 CFU/ml) of the representative microorganisms. The concentrations of antibiotics used represent those used in determining if the test organism is sensitive, intermediate, or resistant to a particular antibiotic.
(§2) After inoculating the microtiter tray, it was sealed with a pressure sensitive plastic plate sealer and initial readings were taken with a reflectance reader. The plate was then placed into a 37° C. incubator. After four hours incubation, the plate was removed and final reflectance readings were taken.
(§3) The results in Table 4 show a pattern of growth, no growth, or intermediate growth of the four test organisms with the nine classes of antibiotics. This is indicative of the type of susceptibility of the organisms to the antibiotics. The organisms tested vary in their susceptibility pattern because of differences in their physiological makeup.

For experiment [2], the system named is Pseudomonas aeruginosa 27853. The experiment is described as above.
Excerpt: as §1, §2, §3

For experiment [3], the system named is Staphylococcus aureus 25923. The experiment is described as above.
Excerpt: as §1, §2, §3

The subject of experiment [4] is Streptococcus faecalis 29212. The experiment is described as above.
Excerpt: as §1, §2, §3

Experiment [5] has as its system Alcaligenes odorans 33585. As to the kind of experiment: Pattern of inhibition using silicone-emulsion CO2 sensors (Table 3). The following applies: 4 h, 37° C., 5×10^7 CFU/ml.
Excerpt: (§4) Microbial identification using the described CO2 sensors can also be based on the principle of growth inhibition. This system differs from the classical biochemical identification systems, as identification is based on selective growth inhibition by inhibitory agents, such as dyes, antibiotics, and other substances. Once again, the production of CO2 is the measure of growth. The growth pattern produced in the presence of these inhibitory agents identifies the species of the test microorganism. The amount of growth is compared with a growth control well that contains no inhibitor. A profile is derived using a two-stage quadratic discriminate analysis based on the results derived from the battery of inhibitory agents.
(§5) Microtiter plates (96 flat bottom wells) containing 0.05% xylenol blue silicone-emulsion sensors were filled with 100 microliters of microbial growth medium containing no inhibitors (growth control wells) and eighteen different dyes, antibiotics, and other inhibitory substances. Final concentrations of the inhibitors were achieved after addition of 100 microliters of inoculum (final inoculum of 5×10^7 CFU/ml) of the representative microorganisms.
as §2

Experiment [6] relates to Escherichia coli 33582. The experiment is described as above. The conditions noted are these: 4 h, 37° C., 5×10^7 CFU/ml.
Excerpt: as §4, §5, §2

For experiment [7], the system named is Proteus mirabilis 33583. The description is as above. The conditions noted are these: 4 h, 37° C., 5×10^7 CFU/ml.
Excerpt: as §4, §5, §2

Experiment [8] has as its system Pseudomonas aeruginosa 33584. Described as above. The conditions noted are these: 4 h, 37° C., 5×10^7 CFU/ml.
Excerpt: as §4, §5, §2

Experiment [9] relates to Escherichia coli (ATCC number 11775). Kind of experiment: Carbon source utilization in carbon dioxide sensor plates (Example 6). The conditions noted are these: 0.5% bromosuccinic acid. The protocol: (§6) 50 ml Kodak Universal Indicator was evaporated to dryness and resuspended in 2 ml HPCL grade isopropanol. 240 mg of phenolphthalein, sodium salt, dissolved in 2 ml of water was added to 1 ml of the concentrated Universal Indicator solution. 150 microliters of CAPS buffer (3-{cyclohexlamino}-1-propanesulfonic acid), pH 10.4, 500 mM was mixed with the phenolphthalein/Universal Indicator solution. This solution was added to 10 grams of GE RTV 615 A silicone that had been degassed for approximately 15 minutes. The silicone and indicator emulsion was mixed by hand stirring. 0.1 grams of white silicone pigment and 2 grams of GE RTV 615 B was added to the mixture. The mixture was hand mixed and degassed for approximately 5 minutes. The emulsion was transferred into a pressurized syringe dispenser fitted to an "air brush" sprayer and sprayed into a polystyrene 24 well plate that had previously been sprayed with 2 coats of GE silicone primer SS 4120. Enough of the indicator/silicone emulsion was sprayed into the wells to coat the bottom surface. The plate was then placed in a humidified oven and cured at 50° C. overnight. This spraying process was repeated on 3 consecutive days for a total of 3 coatings to the wells.
(§7) Two organisms, Escherichia coli (ATCC number 11775) and Pseudomonas aeruginosa (ATCC number 1014), both type strains, were grown overnight (17 hours) in a complex medium as described in Example 3 C, at 37° C., with shaking. The organisms were harvested, spun down at 11950-X-g, at 4° C. for 20 minutes. The supernatant was poured off and the organisms were resuspended in 0.9% sterile saline to an OD600 =5.0.
(§8) Each well of the prepared microtiter plate contained 1 ml of one of the following three media:
(§9) a) a minimal medium buffered with 50 mM Hepes buffer, pH 7.2, containing no carbon source (the negative control);
(§10) b) the same medium as the negative control except that it contained 0.5% bromosuccinic acid; and
(§11) c) an undefined medium Trypticase soy yeast extract medium, buffered with 50 mM Hepes, pH 7.2 (the positive control).
(§12) Twenty microliters of each prepared organism was added to duplicate wells of each type of media.
(§13) The wells were sealed with cork stoppers and the plate was incubated at 37° C. Color changes of the sensor on the bottom of the plate were monitored by eye over a 6 hour period. After approximately 4 hours, two distinct patterns could be seen. […] The positive control wells for E. coli changed from purple to green to yellow to orange, indicating a pH change of the sensor from 10 to approximately 6. The positive control well for P. aeruginosa changed from purple to green to yellow (a pH change of the sensor from 10 to approximately 7). The wells with the bromosuccinic acid medium gave the most distinction between the two organisms. […]

The test system of experiment [10] is Pseudomonas aeruginosa (ATCC number 1014). Described as above. The following applies: 0.5% bromosuccinic acid. The protocol: as §6, §7, §8, §9, §10, §11, §12, §13
[11] abbreviates: Pseudomonas aeruginosa, 27853, 4 h, read-out: Percent growth as compared to a growth control without antibiotics.
Where [12] appears, read: Staphylococcus aureus, 25923, 4 h, read-out: Percent growth as compared to a growth control without antibiotics.
Setting [13] is: Enterococcus faecalis, 29212, 4 h, read-out: Percent growth as compared to a growth control without antibiotics.
[14] abbreviates: Escherichia coli, 29194, 4 h, read-out: Percent growth as compared to a growth control without antibiotics.
[15] abbreviates: 0.2 units, 4 h, 37° C., 5×10^7 CFU/ml.

As for `O=C(N[C@H](CO)[C@H](O)c1ccc([N+](=O)[O-])cc1)C(Cl)Cl` [Chloramphenicol], the activity at 4 µg/mL was found to be 14% in [1] (Escherichia coli, 29194, 4 mcg (per milliliter), 4 h, 37° C., 5×10^7 CFU/ml, read-out: Percent growth as compared to a growth control without antibiotics); 88% in experiment [2] (setting [11]); 45% in experiment [3] (setting [12]); 19% in experiment [4] (setting [13]).

For the molecule `NC[C@H]1O[C@H](O[C@H]2[C@H](O)[C@@H](O[C@H]3O[C@H](CO)[C@@H](O)[C@H](N)[C@H]3O)[C@H](N)C[C@@H]2N)[C@H](O)[C@@H](O)[C@@H]1O` [Kanamycin], the “Percent growth as compared to a growth control without antibiotics” value in [5] (5.4 mcg) is 95%; in experiment [6] (5.4 mcg) it was 66%; in [7] (5.4 mcg) it was 44%; in [8] (5.4 mcg), 105%. Moreover, the activity at 22 µg/mL was found to be 91% in experiment [1] (setting [14]), 72% in experiment [2] (setting [11]), 13% in experiment [3] (setting [12]) and 95% in experiment [4] (setting [13]).

On to `COc1cccc(OC)c1C(=O)N[C@@H]1C(=O)N2[C@@H]1SC(C)(C)[C@@H]2C(=O)O` [Methicillin], for which the activity at 5 µg/mL in experiment [1] (Escherichia coli, 29194, 5 mcg (per milliliter), 4 h, 37° C., 5×10^7 CFU/ml, read-out: Percent growth as compared to a growth control without antibiotics) is 111%; in experiment [2] (Pseudomonas aeruginosa, 27853, 5 mcg (per milliliter), 4 h, 37° C., 5×10^7 CFU/ml, read-out: Percent growth as compared to a growth control without antibiotics) it was 146%; in experiment [3] (Staphylococcus aureus, 25923, 5 mcg (per milliliter), 4 h, 37° C., 5×10^7 CFU/ml, read-out: Percent growth as compared to a growth control without antibiotics) it was 16%; in experiment [4] (Enterococcus faecalis, 29212, 5 mcg (per milliliter), 4 h, 37° C., 5×10^7 CFU/ml, read-out: Percent growth as compared to a growth control without antibiotics), 116%.

With `CCn1cc(C(=O)O)c(=O)c2ccc(C)nc21` [Nalidixic acid], the activity at 15 µg/mL in [1] (setting [14]) is 18%; in experiment [2] (setting [11]), 109%; in experiment [3] (setting [12]) it was 80%; in [4] (setting [13]), 116%.

As for `O=C1CN(/N=C/c2ccc([N+](=O)[O-])o2)C(=O)N1` [Nitrofurantoin], the activity at 15 µg/mL in experiment [1] (Escherichia coli, 29194, 15 mcg (per milliliter), 4 h, 37° C., 5×10^7 CFU/ml, read-out: Percent growth as compared to a growth control without antibiotics) was determined as 14%; in experiment [2] (Pseudomonas aeruginosa, 27853, 15 mcg (per milliliter), 4 h, 37° C., 5×10^7 CFU/ml, read-out: Percent growth as compared to a growth control without antibiotics) it was 112%; in experiment [3] (Staphylococcus aureus, 25923, 15 mcg (per milliliter), 4 h, 37° C., 5×10^7 CFU/ml, read-out: Percent growth as compared to a growth control without antibiotics) it was 33%; in experiment [4] (Enterococcus faecalis, 29212, 15 mcg (per milliliter), 4 h, 37° C., 5×10^7 CFU/ml, read-out: Percent growth as compared to a growth control without antibiotics) it was 110%.

Regarding `CC1(C)S[C@@H]2[C@H](NC(=O)Cc3ccccc3)C(=O)N2[C@H]1C(=O)O` [Penicillin G], the “Percent growth as compared to a growth control without antibiotics” value in [1] (setting [15]) was 103%; in experiment [2] (setting [15]) it was 149%; in experiment [3] (setting [15]), 45%; in [4] (setting [15]) it was 108%.

For `CN(C)C1C(=O)C(C(N)=O)=C(O)C2(O)C(=O)C3=C(O)c4c(O)cccc4C(C)(O)C3CC12` (stereo not drawn) [Tetracycline], the activity at 0.5 µg/mL worked out at 76% in experiment [1] (setting [14]), 120% in experiment [2] (setting [11]), 15% in experiment [3] (setting [12]) and 109% in experiment [4] (setting [13]).

In the case of `CN[C@H](CC(C)C)C(=O)N[C@H]1C(=O)N[C@@H](CC(N)=O)C(=O)N[C@H]2C(=O)N[C@H]3C(=O)N[C@H](C(=O)N[C@H](C(=O)O)c4cc(O)cc(O)c4-c4cc3ccc4O)[C@H](O)c3ccc(c(Cl)c3)Oc3cc2cc(c3O[C@@H]2O[C@H](CO)[C@@H](O)[C@H](O)[C@H]2O[C@H]2C[C@](C)(N)[C@H](O)[C@H](C)O2)Oc2ccc(cc2Cl)[C@H]1O` [Vancomycin], the activity at 10 µg/mL in [1] (setting [14]) turned out to be 94%; in experiment [2] (setting [11]), 106%; in experiment [3] (setting [12]), 22%; in experiment [4] (setting [13]), 15%.

In the case of `O=C(O)CC(Br)C(=O)O` (stereo not drawn) [bromosuccinic acid], the “Utilization as carbon source to produce CO2” value in experiment [9] is recorded as “able to utilize this carbon source only slightly to produce CO2”; in experiment [10], “preferred carbon source”. For the same molecule, the “pH of the sensor reached (change from 10)” value in experiment [9] (four hours, 37° C., by eye) is 8.5 pH; in experiment [10] (four hours, 37° C., by eye), “approximately 6 pH”.

With Brilliant green, the “Percent growth as compared to a growth control without antibiotics” value in experiment [5] (3 mcg) is 37%; in [6] (3 mcg), 104%; in [7] (3 mcg), 84%; in experiment [8] (3 mcg), 101%.

Colistin: the “Percent growth as compared to a growth control without antibiotics” value is -44% in [5] (13 mcg), 3% in experiment [6] (13 mcg), 114% in [7] (13 mcg) and 34% in experiment [8] (13 mcg).
